Data reported in patent publication US20240287076A1, “COMPOUNDS FOR TARGETING DEGRADATION OF BRUTON'S TYROSINE KINASE” (BIOGEN MA INC., priority 2021, published 2024).

Each compound was assayed against T1, BTK (Homo sapiens, UniProt Q06187) (assay: BTK degradation assay using the HiBiT Method (Nano-Glo HiBiT Lytic Assay, GM01501.3 cells)). Conditions: HiBiT Degradation on GM01501.3 BTK @ 6 hours.
T1 construct: The GM01501.3 cell line endogenously expresses BTK with a HiBiT fusion tag via CRISPR knock-in at its C-terminal region; endogenous in cells; host or cells: GM01501.3 (GM01501 cells engineered by CRISPR knock-in of HiBiT at the BTK locus)
Assay type: cell-based
Summary of the method: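 CRISPR knock-in GM01501.3 cells expressing endogenous BTK with C-terminal HiBiT tag, treated 6 h at 37 °C with compounds, 11-point half-log titration from 10 μM top, duplicates. Remaining BTK quantified by Nano-Glo HiBiT lytic luminescence versus DMSO controls; DC50 reported.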

T1 sequence (Q06187 whole entry, the tested form may be a part): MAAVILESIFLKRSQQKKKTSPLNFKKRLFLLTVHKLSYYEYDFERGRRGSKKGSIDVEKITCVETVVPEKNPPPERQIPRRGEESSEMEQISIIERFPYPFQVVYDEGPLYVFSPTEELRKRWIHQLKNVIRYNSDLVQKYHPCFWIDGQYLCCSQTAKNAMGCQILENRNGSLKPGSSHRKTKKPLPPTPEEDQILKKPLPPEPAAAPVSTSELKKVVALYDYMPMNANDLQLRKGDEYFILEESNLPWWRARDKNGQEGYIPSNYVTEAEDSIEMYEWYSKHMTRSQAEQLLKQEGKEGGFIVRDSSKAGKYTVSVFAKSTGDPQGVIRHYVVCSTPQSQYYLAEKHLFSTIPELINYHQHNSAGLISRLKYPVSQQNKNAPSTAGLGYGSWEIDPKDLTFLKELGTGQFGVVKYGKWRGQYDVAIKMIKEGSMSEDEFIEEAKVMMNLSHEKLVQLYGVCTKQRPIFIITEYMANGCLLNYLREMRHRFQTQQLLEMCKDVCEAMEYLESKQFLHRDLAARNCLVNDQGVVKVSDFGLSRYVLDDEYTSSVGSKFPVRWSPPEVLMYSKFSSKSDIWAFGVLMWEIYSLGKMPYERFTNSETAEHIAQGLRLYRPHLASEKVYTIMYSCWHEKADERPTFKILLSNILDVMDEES

`Cn1nc(N2CCC(=O)NC2=O)c2ccc(C3CCN(CCCCc4cc5c(-c6ccc7c(c6)OCCCC7NC(=O)c6noc(C(C)(C)C)n6)ncnn5c4)CC3)cc21` (stereo not shown) [Example 290, 5-(tert-butyl)-N-(8-(6-(4-(4-(3-(2,4-dioxotetrahydropyrimidin-1(2H)-yl)-1-methyl-1H-indazol-6-yl)piperidin-1-yl)butyl)pyrrolo[2,1-f][1,2,4]triazin-4-yl)-2,3,4,5-tetrahydrobenzo[b]oxepin-5-yl)-1,2,4-oxadiazole-3-carboxamide] and `Cn1nc(N2CCC(=O)NC2=O)c2ccc(C3CCN(CCCOc4cc5c(-c6ccc7c(c6)OCCCC7NC(=O)c6noc(C(C)(C)C)n6)ncnn5c4)CC3)cc21` (stereo not shown) [Example 294, 5-(tert-butyl)-N-(8-(6-(3-(4-(3-(2,4-dioxotetrahydropyrimidin-1(2H)-yl)-1-methyl-1H-indazol-6-yl)piperidin-1-yl)propoxy)pyrrolo[2,1-f] [1,2,4]triazin-4-yl)-2,3,4,5-tetrahydrobenzo[b]oxepin-5-yl)-1,2,4-oxadiazole-3-carboxamide] cannot be ordered by DC50: less than 100 nM for the first, less than 100 nM for the second.

Compared with `Cc1cc(-c2ncnn3cc(C#CCCN4CCC(c5ccc(C6CCC(=O)NC6=O)cc5)CC4)cc23)ccc1CNC(=O)c1noc(C(C)(C)C)n1` (stereo not shown) [Example 291, 5-(tert-butyl)-N-(4-(6-(4-(4-(4-(2,6-dioxopiperidin-3-yl)phenyl)piperidin-1-yl)but-1-yn-1-yl)pyrrolo[2,1-f] [1,2,4]triazin-4-yl)-2-methylbenzyl)-1,2,4-oxadiazole-3-carboxamide], `Cc1cc(-c2ncnn3cc(-c4cnn(CCN5CCC(c6ccc7c(C8CCC(=O)NC8=O)nn(C)c7c6)CC5)c4)cc23)ccc1CNC(=O)c1noc(C(C)(C)C)n1` (stereo not shown) [Example 299, 5-(tert-butyl)-N-(4-(6-(1-(2-(4-(3-(2,6-dioxopiperidin-3-yl)-1-methyl-1H-indazol-6-yl)piperidin-1-yl)ethyl)-1H-pyrazol-4-yl)pyrrolo[2,1-f][1,2,4]triazin-4-yl)-2-methylbenzyl)-1,2,4-oxadiazole-3-carboxamide] is lower in DC50: 100 to 500 nM for the first, less than 100 nM for the second.

`Cc1cc(-c2ncnn3cc(OCCCN4CCC(c5ccc6c(N7CCC(=O)NC7=O)nn(C)c6c5)CC4)cc23)ccc1CNC(=O)N1CC(OC(C)(C)C)C1` [Example 293, 3-(tert-butoxy)-N-(4-(6-(3-(4-(3-(2,4-dioxotetrahydropyrimidin-1(2H)-yl)-1-methyl-1H-indazol-6-yl)piperidin-1-yl)propoxy)pyrrolo[2,1-f][1,2,4]triazin-4-yl)-2-methylbenzyl)azetidine-1-carboxamide] and `Cc1cc(-c2ncnn3cc(OC[C@@H](F)CN4CCC(c5ccc6c(N7CCC(=O)NC7=O)nn(C)c6c5)CC4)cc23)ccc1CNC(=O)c1noc(C(C)(C)C)n1` [Example 295, (S)-5-(tert-butyl)-N-(4-(6-(3-(4-(3-(2,4-dioxotetrahydropyrimidin-1(2H)-yl)-1-methyl-1H-indazol-6-yl)piperidin-1-yl)-2-fluoropropoxy)pyrrolo[2,1-f][1,2,4]triazin-4-yl)-2-methylbenzyl)-1,2,4-oxadiazole-3-carboxamide] cannot be ordered by DC50: less than 100 nM for the first, less than 100 nM for the second.

`Cc1cc(-c2ncnn3cc(OC[C@@H](F)CN4CCN(c5ccc(NC6CCC(=O)NC6=O)cn5)CC4)cc23)ccc1CNC(=O)c1noc(C(C)(C)C)n1` (stereo partly drawn) [Example 296, 5-(tert-butyl)-N-(4-(6-((2S)-3-(4-(5-((2,6-dioxopiperidin-3-yl)amino)pyridin-2-yl)piperazin-1-yl)-2-fluoropropoxy)pyrrolo[2,1-f][1,2,4]triazin-4-yl)-2-methylbenzyl)-1,2,4-oxadiazole-3-carboxamide] and `Cc1cc(-c2ncnn3cc(-c4cnn(CCN5CCN(c6ccc(C7CCC(=O)NC7=O)cn6)CC5)c4)cc23)ccc1CNC(=O)c1noc(C(C)(C)C)n1` (stereo not shown) [Example 298, 5-(tert-butyl)-N-(4-(6-(1-(2-(4-(5-(2,6-dioxopiperidin-3-yl)pyridin-2-yl)piperazin-1-yl)ethyl)-1H-pyrazol-4-yl)pyrrolo[2,1-f] [1,2,4]triazin-4-yl)-2-methylbenzyl)-1,2,4-oxadiazole-3-carboxamide] cannot be ordered by DC50: less than 100 nM for the first, less than 100 nM for the second.

`Cc1cc(-c2ncnn3cc(N4CCN(CCCCc5ccc6c(N7CCC(=O)NC7=O)nn(C)c6c5)CC4)cc23)ccc1CNC(=O)c1noc(C(C)(C)C)n1` [Example 297, 5-(tert-butyl)-N-(4-(6-(4-(4-(3-(2,4-dioxotetrahydropyrimidin-1(2H)-yl)-1-methyl-1H-indazol-6-yl)butyl)piperazin-1-yl)pyrrolo[2,1-f][1,2,4]triazin-4-yl)-2-methylbenzyl)-1,2,4-oxadiazole-3-carboxamide] and `Cc1cc(-c2ccnc3cc(CCCCN4CCC(c5ccc6c(N7CCC(=O)NC7=O)nn(C)c6c5)CC4)nn23)ccc1CNC(=O)c1noc(C(C)(C)C)n1` [Example 300, 5-(tert-butyl)-N-(4-(2-(4-(4-(3-(2,4-dioxotetrahydropyrimidin-1(2H)-yl)-1-methyl-1H-indazol-6-yl)piperidin-1-yl)butyl)pyrazolo[1,5-a]pyrimidin-7-yl)-2-methylbenzyl)-1,2,4-oxadiazole-3-carboxamide] cannot be ordered by DC50: less than 100 nM for the first, less than 100 nM for the second.
